Where only a bound is given, the exact number is not on record here.

This note sets out measurements from ChEMBL document CHEMBL2074102, “Expression and functional characterization of rat organic anion transporter 3 (rOat3) in the choroid plexus” (Mol Pharmacol, 2002).

Assay type in all cases: functional, cell-based
Data set [1] has as its target T1, Organic anion transporter 3 (Rattus norvegicus, UniProt Q9R1U7).
T1 sequence (Q9R1U7 whole entry): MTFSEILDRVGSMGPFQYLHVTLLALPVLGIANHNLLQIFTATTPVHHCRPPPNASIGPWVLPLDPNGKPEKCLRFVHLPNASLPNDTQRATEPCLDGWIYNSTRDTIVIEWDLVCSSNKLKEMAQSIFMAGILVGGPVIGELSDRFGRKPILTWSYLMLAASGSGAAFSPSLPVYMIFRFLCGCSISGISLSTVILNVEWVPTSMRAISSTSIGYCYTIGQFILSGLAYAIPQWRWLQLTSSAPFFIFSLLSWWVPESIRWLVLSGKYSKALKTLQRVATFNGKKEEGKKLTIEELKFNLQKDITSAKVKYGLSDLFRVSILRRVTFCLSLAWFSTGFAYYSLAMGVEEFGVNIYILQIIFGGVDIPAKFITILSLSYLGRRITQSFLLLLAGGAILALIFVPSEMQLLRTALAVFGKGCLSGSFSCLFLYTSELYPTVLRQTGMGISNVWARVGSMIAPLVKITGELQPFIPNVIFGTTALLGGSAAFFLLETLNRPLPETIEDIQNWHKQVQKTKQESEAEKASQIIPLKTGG
Briefly: TP_TRANSPORTER: inhibition of PCG uptake in Oat3-expressing LLC-PK1 cells.

In data set [2] the target is T1, Organic anion transporter 3. Briefly: TP_TRANSPORTER: inhibition of PCG uptake in OAT3-expressing LLC-PK1 cells.
Data set [3] addresses T2, Solute carrier family 22 member 6 (Rattus norvegicus, UniProt O35956).
T2 sequence (O35956 whole entry): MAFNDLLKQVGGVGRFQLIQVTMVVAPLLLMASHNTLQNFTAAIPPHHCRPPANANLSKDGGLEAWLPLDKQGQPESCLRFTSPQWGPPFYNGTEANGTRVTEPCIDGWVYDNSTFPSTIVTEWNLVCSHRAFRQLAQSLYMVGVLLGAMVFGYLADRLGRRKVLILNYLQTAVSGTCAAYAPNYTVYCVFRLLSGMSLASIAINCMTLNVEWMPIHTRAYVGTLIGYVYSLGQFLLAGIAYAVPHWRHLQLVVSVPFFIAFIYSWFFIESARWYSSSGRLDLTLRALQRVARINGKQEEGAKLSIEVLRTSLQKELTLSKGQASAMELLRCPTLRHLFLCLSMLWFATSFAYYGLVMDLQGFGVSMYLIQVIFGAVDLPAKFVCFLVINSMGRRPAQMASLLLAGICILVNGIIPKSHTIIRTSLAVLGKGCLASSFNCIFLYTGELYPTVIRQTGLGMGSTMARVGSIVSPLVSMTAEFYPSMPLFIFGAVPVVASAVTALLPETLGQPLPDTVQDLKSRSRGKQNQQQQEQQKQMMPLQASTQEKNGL
Briefly: TP_TRANSPORTER: inhibition of PAH uptake in Oat1-expressing LLC-PK1 cells.

Substrate in data set [4]: CC1(C)S[C@@H]2[C@H](NC(=O)Cc3ccccc3)C(=O)N2[C@H]1C(=O)O
Briefly: TP_TRANSPORTER: uptake in Oat3-expressing LLC-PK1 cells.

Turning to `Nc1ccc(C(=O)NCC(=O)O)cc1` [AMINOHIPPURIC ACID], in data set [1], the affinity, expressed as Ki, was 398 µM.

Take `CN/C(=N/CCSCc1nc[nH]c1C)NC#N` [CIMETIDINE]: the results for the Ki in data set [2] and in data set [3] were 46.8 µM and greater than 1000 µM, respectively.

For `C[C@]12CC[C@@H]3c4ccc(O)cc4CC[C@H]3[C@@H]1CC[C@@H]2O[C@@H]1O[C@H](C(=O)O)[C@@H](O)[C@H](O)[C@H]1O` [ESTRADIOL 17B GLUCURONIDE], the Ki (usually the equilibrium dissociation constant of an inhibitor or competing ligand from its target) in data set [3] is greater than 300 µM; in data set [1], 35.6 µM.

In data set [2], `C[C@]12CC[C@@H]3c4ccc(OS(=O)(=O)O)cc4CC[C@H]3[C@@H]1CCC2=O` [ESTRONE SULFURIC ACID] had a Ki of 9.1 µM.

In turn, `CCCN(CCC)S(=O)(=O)c1ccc(C(=O)O)cc1` [PROBENECID] came in with a Ki in data set [1] of 4.43 µM.

B1: Organic anion transporter 3 (Rattus norvegicus) (protein)
chain: MTFSEILDRVGSMGPFQYLHVTLLALPVLGIANHNLLQIFTATTPVHHCRPPPNASIGPWVLPLDPNGKPEKCLRFVHLPNASLPNDTQRATEPCLDGWIYNSTRDTIVIEWDLVCSSNKLKEMAQSIFMAGILVGGPVIGELSDRFGRKPILTWSYLMLAASGSGAAFSPSLPVYMIFRFLCGCSISGISLSTVILNVEWVPTSMRAISSTSIGYCYTIGQFILSGLAYAIPQWRWLQLTSSAPFFIFSLLSWWVPESIRWLVLSGKYSKALKTLQRVATFNGKKEEGKKLTIEELKFNLQKDITSAKVKYGLSDLFRVSILRRVTFCLSLAWFSTGFAYYSLAMGVEEFGVNIYILQIIFGGVDIPAKFITILSLSYLGRRITQSFLLLLAGGAILALIFVPSEMQLLRTALAVFGKGCLSGSFSCLFLYTSELYPTVLRQTGMGISNVWARVGSMIAPLVKITGELQPFIPNVIFGTTALLGGSAAFFLLETLNRPLPETIEDIQNWHKQVQKTKQESEAEKASQIIPLKTGG
Consider B1, for which the Km (as a rule, the concentration of substrate that gives half-maximal velocity) in data set [4] worked out at 82.6 µM.
